Assay results as given in patent US12115176B2, “Methods and compositions relating to ClbP inhibition” (PRESIDENT AND FELLOWS OF HARVARD COLLEGE, priority 2021, dated 2024).
Entries after “also recorded” stand apart in the source; their conditions may differ.

Columns and labels:
purified ClbP = purified ClbP (Escherichia coli, UniProt Q0P7K6); test: ClbP fluorescence activity assay (in vitro); type: biochemical, Escherichia coli CFT073
Text: Constructs and protein purification for in vitro assays. ClbP constructs described in this publication were derived from a previously described plasmid containing the Escherichia coli CFT073 ClbP sequence (GenBank ID: NP_754344.1) inserted between the NdeI and XhoI restriction sites of pET29b (Addgene plasmid #48244).^14 All in vitro experiments used a construct bearing a C-terminal 10×His tag. This longer polyhistidine-tag was obtained by extension of the previously described 6×His tag through site-directed mutagenesis. All site-directed mutations were introduced using the Quikchange mutagenesis protocol (Stratagene) and confirmed by Sanger DNA sequencing of the whole open reading frame. Plasmids were transformed into chemically competent C41(DE3) (Lucigen) cells and proteins were isolated as previously described.^34
ClbP fluorescence activity assay (in vitro). Assays were performed in a buffer containing 50 mM Tris, 200 mM NaCl, 0.02% w/v DDM at pH 8.0 with 25 nM purified ClbP and 25 μM fluorogenic substrate in a total volume of 20 μL.^34 Purified ClbP was defrosted on ice from stocks stored at −80° C. Stocks were diluted to 50 nM enzyme in assay buffer in the wells of a black, flat-bottom 384-well plate and the appropriate inhibitor in DMSO or DMSO was added to a final concentration of 1%. For experiments testing different inhibitor concentrations, reactions were allowed to sit for 1 hour at room temperature. For experiments testing different preincubation times, the inhibitor in DMSO was added to each reaction X minutes before initiating the reaction, where X is the time indicated on the x-axis for that sample. For experiments to test whether hydrolysis of the boronic ester was rate-limiting, the inhibitor was added to buffer with no enzyme present and allowed to sit at room temperature for the time indicated before adding the enzyme. In all cases, reactions were initiated by the addition of 10 μL, of buffer containing the 50 μM fluorogenic substrate to achieve a final concentration of 25 μM and pipetting once with a multichannel pipette to mix. Reaction progress was monitored in a plate reader (Bio-Tek Synergy HTX multimode plate reader) with an excitation filter of 360/40 nm and an emission filter of 440/20 nm. “% activity” was determined based on the measured relative fluorescence units (RFU) of each condition after 1 hour using the following formula: […]

Bifidobacterium longum = test: Bacterial MIC assay (broth dilution); type: cell-based; details: 15 h, read-out: MICs by compound
[1] = system: HeLa cells infected with NC101; test: HeLa infection assay with pks+ E. coli, cell cycle analysis by flow cytometry; type: cell-based, human
Procedure: Infection with pks^+ E. coli. Assays for cell-cycle arrest and FANCD2 ubiquitination were performed by seeding 24-well plates with 125,000 HeLa cells per well and incubating those plates under standard conditions for 24 hours. At the same time, cultures of NC101 and NC101ΔclbP were started from frozen stocks in LB broth and grown at 37° C. with shaking overnight. […] Cultures were monitored until an OD600 of 0.3-0.5 was reached. At that point, samples of the cultures were removed and DMSO stock solutions of the inhibitor of interest were added to each sample to a final concentration of 1% DMSO and the concentration of inhibitor indicated.
Media in the 24-well plate was aspirated, HeLa cells were washed with sterile DPBS (Thermo Fisher Scientific), and fresh DMEM+FBS+1% DMSO with the indicated concentration of inhibitor was added. A volume of E. coli equivalent to 2.5×10^7 bacteria based on OD in DMEM+FBS+1% DMSO with the indicated concentration of inhibitor was then added directly to wells (Multiplicity of Infection, MOI 1:100). Infections were carried out for 4 hours at 37° C. in a humidified 5% CO2 incubator. Media was then aspirated and cells were washed with DPBS twice to remove bacteria, and fresh DMEM+FBS+PSF supplemented with 50 μg/mL gentamicin was added.
Cell Cycle Analysis. Between 20 and 24 hours after infection, HeLa cells were trypsinized (0.25% Trypsin-EDTA, Gibco), washed with DPBS, and fixed in cold 70% ethanol and stored at 4° C. until flow cytometry analysis (24-48 hours). Cells were centrifuged at 800×g for 10 minutes and 70% ethanol was aspirated. Cells were resuspended in DPBS for 15 minutes, then centrifuged and supernatant aspirated again. Cells were then resuspended in DPBS with 0.2 mg/mL RNAse A (Invitrogen) and 0.02 mg/mL propidium iodide (Millipore Sigma). After 30 minutes, cells were analyzed on a BD LSR II Analyzer at the Harvard University Bauer Core Flow Cytometry Facility. For each replicate, 10,000 events were collected and results were gated for single cells and plotted using the FloJo™ software package.

[2] = system: FANCD2 in HeLa cell extracts; test: Western blot for FANCD2; type: cell-based, human; details: 1 μM 3
Procedure: Western Blot for FANCD2. Infections were carried out as described above. For conditions which involved other small molecules, no bacteria were introduced during the infection and cells were treated with either 0.5 μg/mL mitomycin C (MMC) or 7.5 μg/mL cisplatin under the same conditions for 4 hours. 20 hours after infection, cells were lysed directly in the culture wells (Lysis buffer: 50 mM Tris, (pH 8.0), 150 mM NaCl, 1% Triton X-100, 0.5% Sodium deoxycholate, 0.05% sodium dodecylsulfate, 1 mM MgSO4, SIGMAFAST Protease inhibitor mix, 100 U/mL benzonase (Millipore-Sigma). Lysates were then spun down at 16,000×g to remove particulates and the supernatant was mixed 1:1 with 2X Laemmli sample buffer (Bio-Rad) containing 50 mg/mL dithiothreitol (DTT). Samples were then heated at 70° C. for 10 minutes and run on an SDS-PAGE gel (3-8% Tris-Acetate Novex gel, Invitrogen) at 150 V for 1.5 hours at 4° C. Bands were then transferred to PVDF membranes (100 V, 1 hour at 4° C.) and blocked with 10% skim milk powder in TBST buffer at 4° C. overnight. Blots were probed sequentially with either mouse anti-actin (1.5 μg/mL) or mouse anti-FANCD2 (0.1 μg/mL) primary antibodies (Thermo Fisher Scientific, Catalog #MA511869 and MA123347), followed by a peroxidase-conjugated goat anti-mouse secondary antibody (Jackson ImmunoResearch product 115-035-003, 0.08 μg/mL). Each probing step was conducted for 90 minutes at room temperature n 2.5% skim milk powder in TBST. Before imaging, blots were washed 3×15 minutes each in TBST […]. Blots were imaged using the SuperSignal™ West Pico PLUS Chemiluminescent Substrate (Thermo Fisher Scientific) kit following the manufacturer's instructions and imaged using an Azure Biosystems c300 imager.

CC1(C)OB([C@@H](CC(N)=O)NC(=O)CCCc2ccccc2)OC1(C)C [Compound 3]
IC50 (purified ClbP): 28 nM | speed of reaching maximum potency, in words (purified ClbP; slow-binding inhibition assay, 100 nM): achieved their maximum potency faster than compound 4 | MIC (Bifidobacterium longum): > 200 µM | concentration that completely blocks G2/M phase cell cycle arrest ([1]; HeLa and NC101, inhibitor in the infection medium, FIG. 12A): ≤ 100 nM | concentration that completely blocks G2/M phase cell cycle arrest ([1]; HeLa and pks+ E. coli, 1-hour preincubation of inhibitor with E. coli, FIG. 4): ≤ 5 nM | cell cycle arrest phenotype of colibactin genotoxicity ([1]; HeLa cells infected with NC101, propidium iodide flow cytometry): can block the cell cycle arrest phenotype; also recorded: prevents cell cycle arrest | IC50 ([1]; Homo sapiens, HeLa cells infected with pks+ E. coli, FIG. 4, read-out: apparent IC50 for inhibition of G2/M-phase arrest): ~10 nM | FANCD2 ubiquitination in colibactin-exposed cells ([2]; HeLa cells exposed to pks+ E. coli (NC101)): prevented this response; also recorded: prevents | effect of 3 on FANCD2-Ub response to MMC or cisplatin ([2]; HeLa cells): had no impact on the response to MMC or cisplatin
